Test results reported in patent publication US6399614B1, “1-(N-phenylaminoalkyl)piperazine derivatives substituted at position 2 of the phenyl ring” (Recordati S.A. Chemical and Pharmaceutical Company, priority 1997, dated 2002).
pKi: −log10 of the molar value. Where two headings read alike, the source gives them in different places.

Key:
[1] = tested on: rhythmic bladder voiding contractions; assay: Volume-induced rhythmic bladder voiding contractions in anaesthetized rats; type: in vivo, rat; conditions: for ED (10 min disappearance of contractions) / ED50: Rattus norvegicus; for ED (10 min disappearance of contractions): read-out: ED10 min; for ED50: read-out: ED50 (frequency); for pharmacological activity on bladder voiding contractions (in words): nitro group at position 3 or 4 of the aniline ring
Experimental: Female Sprague Dawley rats weighing 225-275 g (Crl: CDo BR, Charles River Italia) were used. The animals were housed with free access to food and water and were maintained on a forced 12 h alternating light-dark cycle at 22-24° C. for at least one week, except during the experiment. The activity on the rhythmic bladder voiding contractions was evaluated according to the method of Dray (J. Pharmacol. Methods, 13:157, 1985), with some modifications as in Guarneri (Pharmacol. Res., 27:173, 1993). Briefly, rats were anesthetized by subcutaneous injection of 1.25 g/kg (5 ml/kg) urethane, after which the urinary bladder was catheterized via the urethra using PE 50 polyethylene tubing filled with physiological saline. The catheter was tied in place with a ligature around the external urethral orifice and was connected with conventional pressure transducers (Statham P23 ID/P23 XL). […] The bladder was then filled via the recording catheter by incremental volumes of warm (37° C.) saline until reflex bladder voiding contractions occurred (usually 0.8-1.5 ml). For intravenous (i.v.) injection of bioactive compounds, PE 50 polyethylene tubing filled with physiological saline was inserted into the jugular vein. From the cystometrogram, the number of contractions recorded 15 min before (basal values) and after treatment, as well as the mean amplitude of these contractions (mean height of the peaks in mmHg) was evaluated.
Since most compounds produced an effect that was relatively rapid in onset and led to a complete cessation of bladder contractions, bioactivity was conveniently estimated by measuring the duration of bladder quiescence (i.e., the duration of time during which no contractions occurred). The number of animals tested showing a reduction in the number of contractions >30% of that observed in the basal period was also recorded.
Also computed in this manner were extrapolated doses which induced a reduction of the number of contractions of greater than 30% in 50% of treated rats (ED50, frequency) by the method of Bliss (Bliss C. I., Quart. J. Pharm. Pharmacol. 11, 192-216, 1938). After the suppressive effects of drug injection wore off, the height of the contractile peaks was compared with the height of the peaks previously recorded after the control intravenous administration of vehicle. The potency of the tested compounds (ED50 value: the extrapolated doses inducing a 30% reduction of amplitude of the contractions in 50% of treated rats) was evaluated on a quantal basis by the method of Bliss (Bliss C. I., Quart. J. Pharm. Pharmacol. 11, 192-216, 1938).

urinary bladder = assay: Cystometric parameters (cystometrogram) in conscious rats; type: in vivo, rat; conditions: for BVC after treatment / MP after treatment: mean ± S.E.; for change in vivo at 0.3 mg/kg / change in vivo at 1 mg/kg: Rattus norvegicus, iv, 0.25 h, after vs before; for change in vivo at 0.3 mg/kg: i.v. 300 μg/kg; for change in vivo at 1 mg/kg: i.v. 1000 μg/kg
Experimental: Male Sprague Dawley rats (Crl: CDo BR) weighing 250-350 g were used. The animals were housed with free access to food and water and maintained on a forced 12 h alternating light-dark cycle at 22-24° C. for at least one week, except during performance of the experiment. To quantify urodynamic parameters in conscious rats, cystometrographic studies were performed using procedures previously described (Guarneri et al., Pharmacol. Res., 24:175, 1991). […] An approximately 10 mm long midline incision was made in the shaved and cleaned abdominal wall. The urinary bladder was gently freed from adhering tissues, emptied, and then cannulated, via an incision at the dome, with a polyethylene cannula (Portex PP30), which was permanently sutured with silk thread. The cannula was exteriorized through a subcutaneous tunnel in the retroscapular area, where it was connected with a plastic adapter to avoid the risk of removal by the animal. For intravenous (i.v.) injection of test compounds, a PE 50 polyethylene tubing filled with physiological saline was inserted into the jugular vein and exteriorized in the retroscapular area. The rats were utilized exclusively one day after implantation. On the day of the experiment, the rats were placed in Bollman's cages, after a stabilization period of 20 min, and the free tip of the bladder catheter was connected through a T-shaped tube to a pressure transducer (Bentley T 800/Marb P 82) and to a peristaltic pump (Gilson minipuls 2) for a continuous infusion, at the constant rate of 0.1 ml/min, of saline solution into the urinary bladder. The intraluminal pressure signal during infusion was continuously recorded on a polygraph (Battaglia Rangoni KO 380 with ADCl/T amplifier).
Two urodynamic parameters were evaluated: bladder volume capacity (BVC) and micturition pressure (MP). BVC (in ml) is defined as the minimum volume infused after which detrusor contraction (followed by micturition) occurs. MP (in mm Hg) is defined as the maximal intravesical pressure induced by the contraction of detrusor during micturition. Basal BVC and MP values were calculated as the means of the first two recorded cystometrograms. At this point in the assay, the infusion was interrupted and the test compounds were administered. Fifteen minutes after intravenous administration two additional cystometrograms were recorded in each animal and the mean values of the two cystometrographic parameters were calculated. The statistical significance of the differences in urodynamic parameter values was evaluated by Student's t test for paired data.

[2] = target: T1, human 5-HT1A serotonergic receptor (Homo sapiens, UniProt P08908); assay: Radioreceptor binding, recombinant human 5-HT1A receptors ([3H]8-OH-DPAT, HeLa membranes); conditions: recombinant human receptor, [3H]8-OH-DPAT; Ki from IC50 by Cheng & Prusoff; read-out: Binding affinity for the 5-HT1A receptor, Ki
T1 construct: expressed in transfected cells; host or cells: HeLa
T1 sequence (P08908 1-422): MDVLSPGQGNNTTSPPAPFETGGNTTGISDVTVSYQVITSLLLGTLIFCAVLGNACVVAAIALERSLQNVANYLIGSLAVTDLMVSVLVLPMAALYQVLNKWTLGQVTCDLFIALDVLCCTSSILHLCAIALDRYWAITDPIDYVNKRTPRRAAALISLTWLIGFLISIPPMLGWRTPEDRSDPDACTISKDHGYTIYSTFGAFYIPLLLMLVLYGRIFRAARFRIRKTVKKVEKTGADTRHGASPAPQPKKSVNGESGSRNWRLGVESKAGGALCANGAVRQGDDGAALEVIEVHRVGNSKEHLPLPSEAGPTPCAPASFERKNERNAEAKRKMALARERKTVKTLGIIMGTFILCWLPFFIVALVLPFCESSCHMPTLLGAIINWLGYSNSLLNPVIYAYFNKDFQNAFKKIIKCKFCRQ
Experimental: Genomic clone G-21 coding for the human 5-HT1A serotonergic receptor is stably transfected in a human cell line (HeLa). HeLa cells were grown as monolayers in Dulbecco's modified Eagle's medium (DMEM), supplemented with 10% fetal calf serum and gentamicin ([…]), 5% CO2 at 37° C. Cells were detached from the growth flask at 95% confluence by a cell scraper and were lysed in ice-cold 5 mM Tris and 5 mM EDTA buffer (pH 7.4). Homogenates were centrifuged at 40000×g×20 min and pellets were resuspended in a small volume of ice-cold 5 mM Tris and 5 mM EDTA buffer (pH 7.4) and immediately frozen and stored at −70° C. until use. On the day of experiment, cell membranes were resuspended in binding buffer: 50 mM Tris HCl (pH 7.4), 2.5 mM MgCl2, 10 μM pargiline (Fargin et al., Nature 335, 358-360, 1988). Membranes were incubated in a final volume of 1 ml for 30 min at 30° C. with 0.2-1 nM [3H]8-OH-DPAT, in absence or presence of competing drugs; non-specific binding was determined in the presence of 10 μM 5-HT. The incubation was stopped by addition of ice-cold Tris-HCl buffer and rapid filtration through 0.2% polyethyleneimine pretreated Whatman GF/B or Schleicher & Schuell GF52 filters.
The inhibition of specific binding of the radioligands by the tested drugs was analyzed to estimate the IC50 value by using the non-linear curve-fitting program Allfit (De Lean et al., Am. J. Physiol. 235, E97-E102, 1978). The IC50 value was converted to an affinity constant (Ki) by the equation of Cheng & Prusoff (Cheng, Y. C.; Prusoff, W. H. Biochem. Pharmacol. 22, 3099-3108, 1973).

[3] = extrapolated dose inducing 10 min of disappearance of the contractions, intravenous, anaesthetized rats
[4] = extrapolated dose inducing a reduction of the number of contractions >30% in 50% of treated rats, intravenous

| SMILES | ED (10 min disappearance of contractions) [1, 3] [mg/kg] | ED50 [1, 4] [mg/kg] | BVC after treatment (urinary bladder; 15 min after i.v. 300 μg/kg) [mL] | MP after treatment (urinary bladder; 15 min after i.v. 300 μg/kg) [mmHg] | BVC after treatment (urinary bladder; 15 min after i.v. 1000 μg/kg) [mL] | MP after treatment (urinary bladder; 15 min after i.v. 1000 μg/kg) [mmHg] | change in vivo at 0.3 mg/kg (urinary bladder; read-out: BVC % of change) [%] | change in vivo at 0.3 mg/kg (urinary bladder; read-out: MP % of change) [%] | change in vivo at 1 mg/kg (urinary bladder; read-out: BVC % of change) [%] | change in vivo at 1 mg/kg (urinary bladder; read-out: MP % of change) [%] | further results |
| --- | --- | --- | --- | --- | --- | --- | --- | --- | --- | --- | --- |
| COc1ccccc1N1CCN(CCNc2ccccc2)CC1 [Compound AA, 1-(N-phenyl-2-aminoethyl)-4-(2-methoxyphenyl)piperazine, reference compound] | 0.663 | 0.244 | – | – | – | – | – | – | – | – | – |
| COc1ccccc1N1CCN(CCN(C(=O)C2CCCCC2)c2cccc([N+](=O)[O-])c2)CC1 [Compound B, 1-[N-(3-nitrophenyl)-N-cyclohexylcarbonyl-2-aminoethyl]-4-(2-methoxypheny)piperazine, reference compound] | – | – | – | – | – | – | – | – | – | – | ED10 min [1, 3]: >1 mg/kg; ED50 (frequency) [1, 4]: >1 mg/kg; pharmacological activity on bladder voiding contractions (in words) [1]: pharmacological activity was abolished |
| COc1ccccc1N1CCN(CCN(C(=O)C2CCCCC2)c2ccc([N+](=O)[O-])cc2)CC1 [Compound C, 1-[N-(4-nitrophenyl)-N-cyclohexylcarbonyl-2-aminoethyl]-4-(2-methoxyphenyl)piperazine, reference compound] | > 1 | > 1 | – | – | – | – | – | – | – | – | pharmacological activity on bladder voiding contractions (in words) [1]: pharmacological activity was abolished |
| COc1ccccc1N1CCN(CCNc2cccc([N+](=O)[O-])c2)CC1 [Compound D, 1-[N-(3-nitrophenyl)-2-aminoethyl]-4-(2-methoxyphenyl)piperazine, reference compound] | > 1 | > 1 | – | – | – | – | – | – | – | – | – |
| COc1ccccc1N1CCN(CCNc2ccc([N+](=O)[O-])cc2)CC1 [Compound E, 1-[N-(4-nitrophenyl)-2-aminoethyl]-4-(2-methoxyphenyl)piperazine, reference compound] | > 1 | > 1 | – | – | – | – | – | – | – | – | – |
| COc1ccccc1N1CCN(CCNc2ccccc2[N+](=O)[O-])CC1 [Example 1, 1-[N-(2-nitrophenyl)-2-aminoethyl]-4-(2-methoxyphenyl)piperazine] | 0.192 | 0.055 | – | – | – | – | – | – | – | – | – |
| COc1ccccc1N1CCN(CCN(C(=O)C2CCCCC2)c2ccccc2I)CC1 [Example 8] | – | – | 0.71 ± 0.05 | 98.3 ± 17.2 | 0.88 ± 0.12 | 64.8 ± 10.5 | 21 | -15 | 35 | -20 | pKi [2]: 9.44 |
| COc1ccccc1N1CCN(CCN(C(=O)C2CCCCC2)c2ccccc2OCC(F)(F)F)CC1 [Example 42, 1-[N-[2-(2,2,2-trifluoroethoxy)phenyl]-N-cyclohexylcarbonyl-2-aminoethyl]-4-(2-methoxyphenyl)piperazine] | 0.033 | 0.018 | 0.89 ± 0.15 | 66.5 ± 9.9 | 1.00 ± 0.16 | 70.3 ± 7.8 | 26.4 | -20 | 41.7 | -9.2 | – |
| COc1ccccc1N1CCN(CCN(C(=O)C2CCCCC2)c2ccccc2C#N)CC1.Cl [Example 43, 1-[N-(2-cyanophenyl)-N-cyclohexylcarbonyl-2-aminoethyl]-4-(2-methoxyphenyl)piperazine Hydrochloride] | 0.052 | 0.004 | – | – | – | – | – | – | – | – | – |
| Cc1c(-c2ccccc2)oc2c(C(=O)OCCN3CCCCC3)cccc2c1=O [Flavoxate, flavoxate, reference compound] | > 10 | – | 0.87 ± 0.11 | 95.0 ± 10.9 | 1.11 ± 0.16 | 80.1 ± 11.1 | 14.5 | 6.5 | 26.1 | -11.4 | i.v. dose at which a significant increase in BVC was observed (urinary bladder; conscious rats, i.v.): 1.0 mg/kg |
